Source: publication PMC9534960, “De Novo Design of an Androgen Receptor DNA Binding Domain‐Targeted peptide PROTAC for Prostate Cancer Therapy” (Advanced Science, 2022)
One block for each molecule: values may come before it. No end group written: not given here.

Columns and labels:
AR in CWR22rv1 cells = experiment: Immunoblot AR degradation, CWR22rv1; type: cell-based; conditions: immunoblot (Figure S16)
Procedure: H, I) IB analysis of WCLs from C4‐2 cells (H) and LNCaP cells (I) treated with CHX for the indicated times, with or without 250 nM Au‐AR DBD PROTAC drug treatment. The signal intensity of AR normalized to that of Vinculin was quantified. […] The signal intensities of AR and AR‐V7 normalized to that of Vinculin were quantified separately.
To investigate the AR cleavage ability of the Au‐AR DBD PROTAC drug, an immunoblot (IB) analysis of AR was performed. The primary antibody (catalog number:sc‐7305) targeting AR we used is raised against amino acids 299–315 of AR, so we could determine both AR and AR‐V7 at the same time.
Immunoblotting was performed to determine the AR amount after Au‐AR DBD PROTAC treatment. Cells were lysed in EBC buffer (50 mM Tris (pH 7.5), 120 mM NaCl, and 0.5% NP‐40) supplemented with protease inhibitors. Cell lysates were quantified by a Pierce bicinchoninic acid (BCA) Protein Assay Kit (Thermo Fisher). Equal amounts of total proteins were loaded for western blotting analysis. The proteins were separated by SDS‐PAGE gels. Then proteins were transferred to polyvinylidene fluoride (PVDF) membranes and incubated with specific primary antibodies at 4 °C overnight. After incubating with HRP‐conjugated secondary antibody for 1 h at room temperature, the protein immunoreactive signals were tested.

C4‐2 xenografts = experiment: C4‐2 subcutaneous xenograft, tumor growth; type: in vivo, nude mice; conditions: 2 mg kg^−1, subcutaneous injection, every three days for three weeks, n = 5 per group
Procedure: (§1) Two administration routes were tested in the xenograft models, with subcutaneous injection (SC.) in C4‐2 models and intraperitoneal injection (IP.) in CWR‐22rv1 models. […] Each injection volume was 100 µl and PBS was used as control.
(§2) IHC score analysis was performed by the Image J IHC profiler.
(§3) A) Tumor growth curves of C4‐2 xenografts in nude mice treated as indicated (n = 5 per group). Statistical analysis was performed using the nonparametric Kruskal‐Wallis test; ****, p < 0.0001. The data are presented as the mean ± SD values (n = 5). B) Photos of C4‐2 tumors excised at the end of the experiment after different drug treatments. C) Average weight of tumors excised from each group of mice at the end of drug treatment. The data are presented as the mean ± SD values (n = 5). […] IHC scores were determined with ImageJ: 4, highly positive; 3, positive; 2, minimally positive; 1, negative. […] […]
(§4) Treatment of five groups of mice (5 mice per group) was initiated (i.e., day 1) after tumors were established in 2 weeks as palpable masses (50 mm^3). […] The tumor length and width were measured with calipers, and the tumor volume was calculated using the following equation: tumor volume (V) = length × width^2/2. […] All IHC staining images were scored using ImageJ profiler as published protocol.

CWR22Rv1 xenografts = experiment: CWR22Rv1 subcutaneous xenograft, tumor growth; type: in vivo, nude mice; conditions: 2 mg kg^−1, intraperitoneal injection, every three days for three weeks, n = 5 per group
Procedure: as §1, §2, §3, §4

AR ΔDBD = experiment: ITC binding to AR ΔDBD; conditions: AR with mutation of amino acids (575‐591) in the DBD
Procedure: To determine the specificity of AR pep‐PROTAC, mutation of amino acids (575‐591) in the AR DBD plasmid was conducted.
ITC (isothermal titration calorimetry) was an established technique that can determine the binding ability between protein and ligands. The signal measured was the heat released upon the interaction of the two reactants. All proteins – MDM2, AR‐V7, or AR ΔDBD were obtained with E.Coli expression and purified by affinity chromatography. All peptides were synthesized by solid‐phase peptide synthesis and purified by preparative high‐performance liquid chromatography. For ITC experiments, clean sample cells and injection syringe were cleaned according to the manufacturer's protocol before loading protein and peptide. Rinse the sample cell several times with 2 ml of buffer. Load the sample cell with 0.2 ml of protein solution (all proteins concentration were around 20 µM), being careful to avoid bubble formation, load the syringe with 0.04 ml peptide solution (all peptides concentrations were around 200 µM). Choose the temperature at 25 °C for the ITC experiments. a small volume (0.4 µl) for the first injection was used and keep the subsequent injections at the desired volume (2 µl for 19 injections). Once the experiment had finished, the ITC data was fitted with the analysis software for the instrument.
Figure S20. Binding affinity between AR pep-PROTAC and AR-ΔDBD measured […]

Molecule: N#Cc1ccc(O[C@H]2CC[C@H](NC(=O)c3ccc(N4CCC(CN5CCN(c6cc7c(cc6F)C(=O)N(C6CCC(=O)NC6=O)C7=O)CC5)CC4)nn3)CC2)cc1Cl (stereo partly shown) [ARV‐110]
full‐length AR degradation in CWR22rv1 cells (in words) (AR in CWR22rv1 cells): induced full‐length AR degradation

Molecule: CNC(=O)c1ccc(N2C(=S)N(c3ccc(C#N)c(C(F)(F)F)c3)C(=O)C2(C)C)cc1F [enzalutamide]
effect on tumor growth, C4‐2 xenograft (C4‐2 xenografts): inhibited tumor growth
effect on tumor growth, CWR22Rv1 xenograft (CWR22Rv1 xenografts): but not the CWR22Rv1 xenograft model

interaction with AR ΔDBD by ITC (AR ΔDBD): no interaction
Molecule: YLCSSNNNRERDKFRRGGSGGTSFEQFWAWLWP-NH2 (C-terminus assumed) [AR pep‐PROTAC]
